Experimental data taken from US20240374631A1, “A COMPOSITION FOR IMPROVING GUT MICROBIOTA, BEHAVIOURAL PATTERN, ALPHA-SYNUCLEIN LEVELS, SLEEP PATTERN AND/OR SERUM MELATONIN” (GN Corporation Co Ltd, priority 2021, published 2024).

System: gut microbiota
Assay: Gut microbiome analysis (16S rRNA sequencing of fecal samples) in STAM model of NASH
Type: in vivo, C57BL/6J mice
Source text: The study is reported in accordance with Animal Research: Reporting of In Vivo Experiments (ARRIVE) guidelines. C57BL/6J mice were obtained from Japan SLC, Inc. (Japan). All animals used in this study were cared for under the following guidelines: Act on Welfare and Management of Animals (Ministry of the Environment, Japan, Act No. 105 of Oct. 1, 1973), standards relating to the care and management of laboratory animals and relief of pain (Notice No. 88 of the Ministry of the Environment, Japan, Apr. 28, 2006) and the guidelines for proper conduct of animal experiments (Science Council of Japan, Jun. 1, 2006). Protocol approvals were obtained from SMC Laboratories, Japan's IACUC (Study reference no: […] Mice were maintained in a specific pathogen-free (SPF) facility under controlled conditions of temperature (23±3° C.), humidity (50±20%), lighting (12-hour artificial light and dark cycles; light from 8:00 to 20:00) and air exchange. The STAM model of NASH was induced as previously described [D10]. Mice were given a single subcutaneous injection of 200 μg streptozotocin (STZ, Sigma-Aldrich, USA) solution 2 days after birth and fed with a high-fat diet (HFD, 57 kcal % fat, Cat #HFD32, CLEA Japan, Inc., Japan) from 4-9 weeks of age. All mice develop liver steatosis and diabetes and at […] mice had established steatohepatitis, histologically. Studygroups: There were five study groups, described below. Eight mice were included in each study group. Eight NASH mice were orally administered vehicle supplemented with AFO-202 Beta Glucan at a dose of 1 mg/kg in a volume of 5 mL/kg once daily from 6 to 9 weeks of age. Eight NASH mice were orally administered vehicle supplemented with Telmisartan at a dose of 10 mg/kg once daily from 6 to 9 weeks of age. Frequency: Fecal samples were collected at the 6 weeks of age (before administration) and 9 weeks of age (before sacrifice). Procedure: At 6 weeks of age, fecal samples were collected from each mouse by clean catch method. […] A sterile petri dish was placed on the bench. Gently massage the abdomen, position the bottom of mouse over a fresh petri dish, and collect 1-2 fecal pellets. At sacrifice, fecal samples were aseptically collected from cecum. The tubes with feces were placed on ice immediately. These tubes were snap frozen in liquid nitrogen and stored at -80° C. for shipping. In this analysis, the 16S rRNA sequence data acquired by the next-generation sequencer from the fecal […] was used to perform community analysis using the QIIME2 program for microbial community analysis. The raw read data in FASTQ format output from the next-generation sequencer was trimmed to remove adapter sequences and low QV regions that may be included in the data. Cutadapt was used to remove adapter sequences from DNA sequencing reads. Trimmomatic was used as read trimming tool for Illumina NGS data. The adapter sequence was trimmed using the adapter trimming program “cutadapt” if the Trimming of the region at the end of the read sequence overlapped the corresponding sequence by at least one base (mismatch tolerance: 20%). When reads containing N were present in at least one of Read1 and Read2, both Read1 and Read2 were removed. Trimming of low QV regions was performed on the read data after processing using the QV trimming program “Trimmomatic” under the following conditions. The window of 20 bases is slid from the 5' side, and the area where the average QV is less than 20 is trimmed. After trimming, only the reads with more than 50 bases remaining in both Read1 and Read2 were taken as output. The microbial community analysis based on 16S rRNA sequence was performed on the sequence data trimmed in the previous section using the microbial community analysis program “QIIME2”. The annotation program “sklearn” included in QIIME2 is used to annotate the ASV (OTU) sequences. […]

`CCCc1nc2c(C)cc(-c3nc4ccccc4n3C)cc2n1Cc1ccc(-c2ccccc2C(=O)O)cc1` [Telmisartan] was tested, and the “Abundance Lachnospiraceae/[Ruminococcus]/gnavus” value (post, line r79) was 260, the “Abundance Bacteroidaceae/Bacteroides/—” value (post, line r80) was 1596 and the “Abundance S24-7/—/—” value (post, line r81) was 125. For the same compound, the “Abundance Lachnospiraceae/[Ruminococcus]/gnavus” value (post, line r83) was 281, the “Abundance Ruminococcaceae/Oscillospira/—” value (post, line r84) was 393 and the “Abundance Alcaligenaceae/Sutterella/—” value (post, line r86) was 63. For the same compound, the “Abundance S24-7/—/—” value (post, line r87) was 54, the “Abundance Other/Other/Other” value (post, line r90) was 0 and the “Abundance Lachnospiraceae/[Ruminococcus]/gnavus” value (post, line r91) was 325. The “Abundance S24-7/—/—” value (post, line r92) was 153, the “Abundance Rikenellaceae/—/—” value (post, line r93) was 134 and the “Abundance Lachnospiraceae/[Ruminococcus]/gnavus” value (post, line r94) was 30. The “Abundance Lachnospiraceae/—/—” value (post, line r95) was 359, the “Abundance Clostridiaceae/Other/Other” value (post, line r96) was 39 and the “Abundance Lachnospiraceae/—/—” value (post, line r97) was 239. The “Abundance Ruminococcaceae/Oscillospira/—” value (post, line r98) was 138, the “Abundance Enterococcaceae/Enterococcus/—” value (post, line r99) was 0 and the “Abundance Rikenellaceae/—/—” value (post, line r100) was 96. For the same compound, the “Abundance S24-7/—/—” value (post, line r101) was 79, the “Abundance Lactobacillaceae/Lactobacillus/reuteri” value (post, line r102) was 0 and the “Abundance Bacteroidaceae/Bacteroides/acidifaciens” value (post, line r103) was 127. For the same compound, the “Abundance Ruminococcaceae/Oscillospira/—” value (post, line r104) was 451, the “Abundance Enterobacteriaceae/Escherichia/coli” value (post, line r105) was 0 and the “Abundance Ruminococcaceae/Oscillospira/—” value (post, line r106) was 280. The “Abundance —/—/—” value (post, line r107) was 254, the “Abundance S24-7/—/—” value (post, line r108) was 92 and the “Abundance —/—/—” value (post, line r109) was 0. For the same compound, the “Abundance Other/Other/Other” value (post, line r110) was 251, the “Abundance Lachnospiraceae/—/—” value (post, line r111) was 163 and the “Abundance Lachnospiraceae/[Ruminococcus]/gnavus” value (post, line r112) was 63. For the same compound, the “Abundance Lachnospiraceae/—/—” value (post, line r113) was 117, the “Abundance Enterobacteriaceae/Klebsiella/Other” value (post, line r114) was 33 and the “Abundance Lachnospiraceae/—/—” value (post, line r115) was 187. For the same compound, the “Abundance —/—/—” value (post, line r117) was 261, the “Abundance Lactobacillaceae/Lactobacillus/—” value (post, line r118) was 0 and the “Abundance Other/Other/Other” value (post, line r119) was 248. For the same compound, the “Abundance —/—/—” value (post, line r120) was 0, the “Abundance Erysipclotrichaceae/Allobaculum/—” value (post, line r121) was 59 and the “Abundance —/—/—” value (post, line r122) was 84. The “Abundance Lachnospiraceae/—/—” value (post, line r123) was 271, the “Abundance —/—/—” value (post, line r124) was 173 and the “Abundance Other/Other/Other” value (post, line r125) was 269. The “Abundance Lactobacillaceae/Lactobacillus/reuteri” value (post, line r126) was 0, the “Abundance Ruminococcaceae/Oscillospira/—” value (post, line r127) was 273 and the “Abundance Lachnospiraceae/—/—” value (post, line r128) was 139. For the same compound, the “Abundance S24-7/—/—” value (post, line r129) was 125, the “Abundance S24-7/—/—” value (post, line r130) was 111 and the “Abundance Lachnospiraceae/—/—” value (post, line r131) was 119. The “Abundance S24-7/—/—” value (post, line r133) was 74, the “Abundance Lachnospiraceae/—/—” value (post, line r134) was 98 and the “Abundance —/—/—” value (post, line r135) was 376. The “Abundance Coriobacteriaceae/Adlercreutzia/—” value (post, line r136) was 30, the “Abundance —/—/—” value (post, line r137) was 118 and the “Abundance Clostidiaceae/Other/Other” value (post, line r138) was 0. The “Abundance Turicibacteraceae/Turicibacter/—” value (post, line r139) was 0, the “Abundance Ruminococcaceae/Ruminococcus/—” value (post, line r140) was 143 and the “Abundance Ruminococcaceae/Oscillospira/—” value (post, line r141) was 119. The “Abundance Dehalobacteriaceae/Dehalobacterium/—” value (post, line r142) was 268, the “Abundance Staphylococcaceae/Staphylococcus/Other” value (post, line r143) was 34 and the “Abundance Rikenellaceae/—/—” value (post, line r144) was 97. For the same compound, the “Abundance Lachnospiraceae/—/—” value (post, line r145) was 98, the “Abundance —/—/—” value (post, line r146) was 68 and the “Abundance Staphylococcaceae/Staphylococcus/sciuri” value (post, line r147) was 41. The “Abundance —/—/—” value (post, line r148) was 0, the “Abundance Ruminococcaceae/Ruminococcus/—” value (post, line r149) was 124 and the “Abundance Coriobacteriaceae/Adlercreutzia/—” value (post, line r150) was 0. For the same compound, the “Abundance Ruminococcaceae/Oscillospira/—” value (post, line r151) was 120, the “Abundance Lachnospiraceae/Clostridium/Other” value (post, line r152) was 40 and the “Abundance Lachnospiraceae/Coprococcus/—” value (post, line r153) was 85. For the same compound, the “Abundance Desulfovibrionaceae/—/—” value (post, line r154) was 148, the “Abundance —/—/—” value (post, line r155) was 103 and the “Abundance Lachnospiraceae/—/—” value (post, line r156) was 272. For the same compound, the “Abundance Dehalobacteriaceae/Dehalobacterium/—” value (post, line r157) was 239, the “Abundance Coriobacteriaceae/Adlercreutzia/—” value (post, line r158) was 0 and the “Abundance Lachnospiraceae/—/—” value (post, line r159) was 119. For the same compound, the “Abundance Lachnospiraceae/—/—” value (post, line r160) was 14, the “Abundance S24-7/—/—” value (post, line r162) was 51 and the “Abundance Streptococcaceae/Streptococcus/—” value (post, line r163) was 44. For the same compound, the “Abundance Lachnospiraceae/[Ruminococcus]/gnavus” value (post, line r164) was 37, the “Abundance Lachnospiraceae/—/—” value (post, line r165) was 173 and the “Abundance Lachnospiraceae/—/—” value (post, line r166) was 10. The “Abundance Coriobacteriaceae/Adlercreutzia/—” value (post, line r167) was 8, the “Abundance Lachnospiraceae/—/—” value (post, line r168) was 57 and the “Abundance Erysipelotrichaceae/Clostridium/cocleatum” value (post, line r169) was 119. The “Abundance Lachnospiraceae/—/—” value (post, line r171) was 81, the “Abundance Bacteroidaceae/Bacteroides/—” value (post, line r172) was 468 and the “Abundance Ruminococcaceae/Oscillospira/—” value (post, line r173) was 53. The “Abundance Ruminococcaceae/—/—” value (post, line r174) was 72, the “Abundance Lachnospiraceae/Other/Other” value (post, line r175) was 90 and the “Abundance Lachnospiraceae/Dorea/—” value (post, line r176) was 154. For the same compound, the “Abundance Lachnospiraceae/—/—” value (post, line r177) was 94, the “Abundance S24-7/—/—” value (post, line r178) was 0 and the “Abundance Lachnospiraceae/—/—” value (post, line r179) was 138. For the same compound, the “Abundance Lactobacillaceae/Lactobaccilus/Other” value (post, line r180) was 0, the “Abundance —/—/—” value (post, line r181) was 48 and the “Abundance Ruminococcaceae/Oscillospira/—” value (post, line r182) was 101. The “Abundance S24-7/—/—” value (post, line r184) was 71, the “Abundance [Mogibacteriaceae]/—/—” value (post, line r185) was 28 and the “Abundance Peptococcaceae/—/—” value (post, line r186) was 42. For the same compound, the “Abundance —/—/—” value (post, line r187) was 40, the “Abundance —/—/—” value (post, line r188) was 213 and the “Abundance S24-7/—/—” value (post, line r189) was 19. For the same compound, the “Abundance: Ruminococcaceae, Oscillospira, —” value (pre (baseline), line r191) was 97 and the “Abundance: Lachnospiraceae, [Ruminococcus], gnavus” value (pre (baseline), line r192) was 33.
